According to patent publication US9717721B2, “Use of aryl-quinolin derivatives as inhibitors of vasculogenic mimicry” (TaiRx Inc., priority 2015, dated 2017):

Tests used:
[1] = tested on: SK-MEL-28 aggressive human melanoma cells; test: Loss of pre-formed VM network in SK-MEL-28 cells on MATRIGEL; type: cell-based; conditions: 100 nM
Experimental: TRX-818 M1 (i.e., compound No. 38) structurally similar compounds were tested for their effect on inhibition of vasculogenic mimicry. Aggressive human melanoma (SK-MEL-28 from ATCC®; 7.5×10^4 mL medium) cells were seeded onto a three-dimensional polymerized MATRIGEL™-coated 24-well plate. After 18 h of cell seeding, VM network was formed. The medium was then replaced with negative controls (untreated and DMSO treated controls), a positive control (100 nM of TRX-818M1) or 100 nM of each testing compound.

[2] = tested on: HCT-116 orthotopic human colon cancer xenograft; test: HCT-116 orthotopic human colon cancer xenograft model; type: in vivo, mice; conditions: 50 mg/kg Q4D×3, i.p.
Experimental: The inhibitory effect of TRX-818 on tumor growth and VM formation of HCT-116, a highly metastatic colon tumor, was examined in a HCT-116 orthotopic xenograft model. The effect of TRX-818 was evaluated on the formation of the vascular or vascular-like (vasculogenic mimicry, VM) network by immunohistochemistry staining (IHC) in orthotopic xenograft human colon cancer model inoculated with HCT116 colon cancer cell lines
Six groups were set in this study (ten mice/group). There were: Group 1, TRX-818 at 20 mg/kg given as oral administration; Group 2, TRX-818 at 50 mg/kg given as oral administration; Group 3, TRX-818 at 100 mg/kg given as oral administration; Group 4, TRX-818 at 20 mg/kg given as intravenous injection; Group 5, Irinotecan at 50 mg/kg given as intraperitoneal injection; Group 6, vehicle group. Dose schedule for G1, G2, G3 and G6 was QD×28 and for G4 was QOD×7. Body weights were monitored for safety evaluation. Tumor size and tumor weight were measured at the end of in-life study. The percentage of tumor growth inhibition (TGI %) was calculated at the termination of the study for anti-tumor effect evaluation. The average body weight of study mice on Day 1 was ˜20 gram and decreased to ˜17-19 gram at the end of study (Day 42)
At the end of 28-day dosing, CO2 anesthesia (1 min) followed by cervical dislocation was used for mice euthanasia in the study prior to tumors and lungs excision. First, a ventral midline incision was made and colon with primary tumor was excised and collected. The tumor collection was completed in 3 minutes after euthanasia. The tissues were rinsed with PBS to remove the blood before fixation.
The number of channels with CD31^+/red blood cell (RBC)^+ or CD31^−/RBC^+ were counted on the whole section of each sample in each group, and the number of vessels with CD31 positive or negative staining were counted based on 5 light fields (200×) under microscope. The vascular network represented by the CD31^+/RBC^+ staining whereas the VM network represented by CD31^−/RBC^+ staining, because the VM formation is independent of vascular endothelial cells. The scoring was conducted by blinded, objective observer.

[3] = tested on: C8161 cells; test: Cell viability of C8161 cells (Guava Nexin Assay); type: cell-based; conditions: higher concentrations in the nM range
Experimental: (§1) Aggressive human melanoma (C8161 or SK-MEL28; 1×10^5) cells were seeded into a three-dimensional polymerized MATRIGEL™ (75 μl) for VM network analysis. C8161 or SK-MEL28 cells were treated for 24 h with 0.5, 1, 5, 10, 25 or 50 or 100 nM of TRX-818 at 5 or 24 h after cell attachment. Another set of melanoma cells were seeded onto a plastic dish and treated for the same amount of time before the cell viability of C8161 or SK-MEL28 cells was determined using the Guava Nexin Assay (Millipore, USA).
(§2) Aggressive human melanoma (C8161, 7.5×10^4) cells were seeded as disclosed in Example 1. C8161 cells were treated tor 4 h or 24 h with 0.3, 1 or 5 nM of TRX-818M1. Another set of melanoma cells were seeded onto a plastic dish and treated for the same amount of time before the cell viability of C8161 cells was determined.

[4] = tested on: C8161 aggressive melanoma cells; test: VM network formation in three-dimensional MATRIGEL, C8161 cells; type: cell-based, human; conditions: for VM network formation: all tested concentrations
Experimental: as §1
The VM network image was taken using a confocal laser scanning microscope equipped with an environmental, chamber to track the response of cancer cells to the test compound. The images were then digitized and subsequently analyzed using the Angiosys software. Four images per sample were analyzed to quantify the number of junctions and total tubule length of VM formation. Changes were presented in percentage relative to the vehicle control. Sterile deionized water (tissue-culture grade) was used as the vehicle control.
as §2

Row | Compound | loss of VM network compared to negative controls ([1]; 5 h post treatment) | loss of VM network compared to negative controls ([1]; 24 h post treatment) | Average number of channels (CD31−/RBC+, VM) in the whole tumor section per group, Mean ± SEM [2] | cell death [3] | concentration effective as vascular disrupting agent [4] [nM] | VM network formation [4]
1 | COc1cccc(-c2cc(=O)c3c(O)c(OC)ccc3[nH]2)c1 [Compound B3] | mild loss of VM network | marked loss of VM network |  |  |  | 
2 | CCc1c2c(nc3ccc(OC(=O)N4CCC(N5CCCCC5)CC4)cc13)-c1cc3c(c(=O)n1C2)COC(=O)[C@]3(O)CC [Irinotecan, reference compound] |  |  | 1.1 ± 0.4 |  |  | 
3 | COc1cc2c(cc1O)N=C(c1ccccc1F)CC2=O [Compound 43, 2-(2-Fluorophenyl)-7-hydroxy-6-methoxyquinolin-4-one] | mild loss of VM network | marked loss of VM network |  |  |  | 
4 | COc1ccc2[nH]c(-c3cccc(F)c3)cc(=O)c2c1O [TRX-818M1, 2-(3-Fluorophenyl)-5-hydroxy-6-methoxyquinolin-4-one] | mild loss of VM network | marked loss of VM network |  | induced cell death | ~0.3 | inhibited
5 | COc1ccc2[nH]c(-c3cccc(F)c3)cc(=O)c2c1OP(=O)(O)O [Compound 52, 2-(3-Fluorophenyl)-6-methoxy-4-oxo-1,4-dihydroquinolin-5-yl dihydrogen phosphate] | mild loss of VM network | marked loss of VM network |  |  |  | 
6 | O=c1cc(-c2cc(O)cc(F)c2)[nH]c2ccc(N3CCCC3)cc12 [Compound C6] | mild loss of VM network | marked loss of VM network |  |  |  | 
7 | CN(C)c1ccc2[nH]c(-c3cc(O)cc(F)c3)cc(=O)c2c1 [Compound C4] | mild loss of VM network | marked loss of VM network |  |  |  | 
8 | O=c1cc(-c2cccc(Cl)c2)[nH]c2ccc3c(c12)OCO3 [Compound B1] | mild loss of VM network | marked loss of VM network |  |  |  | 
9 | O=c1cc(-c2ccccc2F)[nH]c2cc3c(cc12)OCO3 [CHM-2133, 2-(2-fluorophenyl)-6,7-methylenedioxyquinolin-4-one] |  |  |  |  | ~0.3 | inhibited
10 | O=c1cc(-c2cccc(OP(=O)(O)O)c2)[nH]c2ccc(N3CCCC3)cc12 [Compound 147, 3-(4-Oxo-6-(pyrrolidin-1-yl)-1,4-dihydroquinolin-2-yl)phenyl dihydrogen phosphate] | mild loss of VM network | marked loss of VM network |  |  |  | 
11 | O=c1cc(-c2cccc(F)c2)[nH]c2cc3c(cc12)OCO3 [Compound A6] | mild loss of VM network | marked loss of VM network |  |  |  | 
